# Reference: paper PMC7271289, “Anti-Inflammatory and Anticoagulant Activities of Synthesized NSAID Prodrug Esters” (Scientifica, 2020)
# pIC50: −log10 of the molar value. Where two headings read alike, the source gives them in different places.
# Tests used:
# COX2 [1] = target: T1, COX2 (Homo sapiens, UniProt P35354); conditions: previous published literature; read-out: inhibition activity for COX2 enzyme (converted); cited from earlier work
# T1 construct: purchased Cayman Chemical, USA 560131
# T1 sequence (P35354 18-604): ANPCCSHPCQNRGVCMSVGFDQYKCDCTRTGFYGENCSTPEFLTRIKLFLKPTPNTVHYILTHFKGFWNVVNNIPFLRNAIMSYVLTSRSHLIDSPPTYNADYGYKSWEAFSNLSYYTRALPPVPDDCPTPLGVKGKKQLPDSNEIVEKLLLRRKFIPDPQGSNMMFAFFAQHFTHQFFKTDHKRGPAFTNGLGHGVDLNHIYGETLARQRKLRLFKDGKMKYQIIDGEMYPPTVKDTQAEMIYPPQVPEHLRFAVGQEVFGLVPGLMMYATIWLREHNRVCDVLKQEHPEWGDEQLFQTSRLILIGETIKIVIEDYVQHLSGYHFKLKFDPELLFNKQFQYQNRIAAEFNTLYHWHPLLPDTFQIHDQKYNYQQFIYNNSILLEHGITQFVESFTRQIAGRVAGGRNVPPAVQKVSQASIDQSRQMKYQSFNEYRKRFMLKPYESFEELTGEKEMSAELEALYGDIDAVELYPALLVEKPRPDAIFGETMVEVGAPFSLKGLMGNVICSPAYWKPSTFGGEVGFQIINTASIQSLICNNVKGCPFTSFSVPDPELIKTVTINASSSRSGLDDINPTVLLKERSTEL
# COX2 [2] = target: T1, COX2; test: biochemical
# Procedure: IR (infrared) spectra were done using FTIR (Thermo Fisher Nicolet IS5). […] Nuclear magnetic resonance (NMR) spectra were obtained using the Bruker Avance (300 MHz) spectrometer, micropipettes (Finnpipette, Finland), incubator (Nuve, Turkey), syringe filter 0.45 μm pore size (Microlab, China), microbroth plate (Greiner bio-one, North America), and LABiTec (Germany) for PT and aPTT tests.
# The plate is washed with a buffer solution, and Ellman's reagent, which contains the substrate of acetylcholinesterase, is added to the well. […] The anti-inflammatory effect of the tested compounds was evaluated by calculating the percentage inhibition of PGE2 production.
# [3] = tested on: platelet poor citrated plasma; test: Prothrombin time (PT) test; type: biochemical, human; conditions: drug sample 3000 mg/L; for PT Average ± SD: average of three volunteers; for PT: equal volume with plasma, 5 min at 37°C
# Procedure: (§1) PT and aPTT tests were carried out simultaneously. Blood samples from three healthy volunteers were collected in sodium citrated blood tubes (Vacutainer, BD). Blood samples were then centrifuged for 15 min at 1500 rpm to prepare platelet poor citrated plasma. The LABiTec (Germany) apparatus was used for the determination of PT and aPTT. Equal volumes of drug samples (3000 mg/L) and platelet-depleted plasma were incubated for 5 min at 37°C. The PT test was performed as follows: a 100 μl of tissue thromboplastin (HUMAN) was added to 50 μl of prewarmed mixture, and clotting time was measured. For the aPTT test, 50 μl of rabbit brain extract was added to equal volume of the prewarmed platelet poor plasma-extract mixture incubated for 1 minute after which 50 μl of 0.025 M calcium chloride (HUMAN) was added and clotting time was measured; PBS was used as control.
# COX1 [4] = target: T2, COX1 (Ovis aries, UniProt P05979); test: COX inhibitor screening assay kit (Cayman No. 560131), COX1; type: biochemical; set-up: purchased Cayman Chemical, USA 560131; conditions: for IC50: ELISA kit, calculated from percentage inhibition of PGE2 production, read-out: IC50 for COX1 enzyme (converted)
# T2 sequence (P05979 25-600): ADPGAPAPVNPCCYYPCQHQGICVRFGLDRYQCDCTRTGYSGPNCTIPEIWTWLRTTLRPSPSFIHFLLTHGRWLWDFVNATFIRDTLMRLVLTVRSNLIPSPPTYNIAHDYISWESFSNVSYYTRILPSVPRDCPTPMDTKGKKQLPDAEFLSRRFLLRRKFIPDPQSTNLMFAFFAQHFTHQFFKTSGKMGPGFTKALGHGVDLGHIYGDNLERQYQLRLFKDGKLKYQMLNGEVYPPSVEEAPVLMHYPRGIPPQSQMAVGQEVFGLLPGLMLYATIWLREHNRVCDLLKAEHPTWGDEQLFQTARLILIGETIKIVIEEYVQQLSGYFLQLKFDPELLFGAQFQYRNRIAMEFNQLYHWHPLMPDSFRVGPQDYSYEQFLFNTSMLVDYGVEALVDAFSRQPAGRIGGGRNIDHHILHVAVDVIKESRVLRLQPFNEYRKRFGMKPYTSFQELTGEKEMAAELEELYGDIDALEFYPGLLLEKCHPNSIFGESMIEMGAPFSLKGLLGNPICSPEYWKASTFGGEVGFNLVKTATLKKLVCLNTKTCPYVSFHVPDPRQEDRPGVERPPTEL
# Procedure: The instrumentation used in this project includes magnetic stirrer and heater (LM-1003), weighing balance (Adventurer-OHAVS-AR2140), and rotaevaporator (Heidolph-OB2000). IR (infrared) spectra were done using FTIR (Thermo Fisher Nicolet IS5). The UV-VIS spectra were done using the JENWAY-7315 spectrophotometer. Nuclear magnetic resonance (NMR) spectra were obtained using the Bruker Avance (300 MHz) spectrometer, micropipettes (Finnpipette, Finland), incubator (Nuve, Turkey), syringe filter 0.45 μm pore size (Microlab, China), microbroth plate (Greiner bio-one, North America), and LABiTec (Germany) for PT and aPTT tests. The Cyclooxygenase (COX) enzyme inhibition test was performed using COX inhibitor screening assay kit No. 560131 Cayman Chemical, USA and was read by Elisaplate Reader (BioRad, Japan).
# COX1 and COX2 inhibition activities were determined using a COX inhibitor screening assay kit No. 560131 by Cayman Chemical, USA. The plate is washed with a buffer solution, and Ellman's reagent, which contains the substrate of acetylcholinesterase, is added to the well. The yellow product of this enzymatic reaction is determined spectrophotometrically in a microplate reader (BioRad, Japan) at 415 nm. […]. The anti-inflammatory effect of the tested compounds was evaluated by calculating the percentage inhibition of PGE2 production.
# [5] = tested on: platelet poor citrated plasma; test: Activated partial thromboplastin time (aPTT) test; type: biochemical, human; conditions: drug sample 3000 mg/L; for aPTT Average ± SD: average of three volunteers; for aPTT: equal volume with plasma, 5 min at 37°C
# Procedure: as §1
# COX1 [6] = target: T2, COX1; conditions: previous published literature; cited from earlier work
Compound,IC50 (COX2 [1]),pIC50 (COX2 [2]),PT Average ± SD [3],PT ([3]; volunteer 1),PT ([3]; volunteer 2),PT ([3]; volunteer 3),IC50 (COX1 [4]),aPTT Average ± SD [5],aPTT Average ± SD ([5]; listed as naproxen-paracetamol ester),aPTT ([5]; volunteer 1),aPTT ([5]; volunteer 2),aPTT ([5]; volunteer 3),inhibition activity for COX1 enzyme (COX1 [6]),"IC50 (COX2 [2]; ELISA kit, calculated from percentage inhibition of PGE2 production, read-out: IC50 for COX2 enzyme (converted))",selectivity COX1 versus COX2 (COX1 [4]; comparison of the COX1 and COX2 IC50)
COc1ccc2cc([C@H](C)C(=O)O)ccc2c1 [Naproxen],5.65 µM,,,,,,,,,,,,,,
COc1ccc2cc([C@H](C)C(=O)Oc3ccc(NC(C)=O)cc3)ccc2c1 [Nap-Para ester],,5.28,21.8 ± 2.86 s,20.4 s,19.9 s,25.1 s,4.13 µM,69.9 ± 8.79 s,69.9 ± 7.7 s,78.2 s,70.9 s,60.7 s,,,
"CC(=O)Nc1ccc(O)cc1 [Paracetamol, reference compound]",,,21.7 ± 4.52 s,18.5 s,19.4 s,27.1 s,,72 ± 8.7 s,,73.1 s,62.8 s,80.2 s,less IC50 inhibition activity,,
"CC(C)Cc1ccc(C(C)C(=O)O)cc1 (stereo not drawn) [Ibuprofen, reference compound]",,,21.3 ± 3.3 s,,,,,,,,,,,,
"CC(=O)Nc1ccc(OC(=O)C(C)c2ccc(CC(C)C)cc2)cc1 (stereo not drawn) [Ibu-Para ester, 4-Acetamidophenyl 2-(4-isobutylphenyl) propanoate]",,,23.8 ± 6.08 s,19.8 s,20.8 s,30.8 s,1.56 µM,71 ± 0.9 s,,71.2 s,71.8 s,70 s,,6.5 µM,more selective towards COX1
